From US8148431B2, “Osteogenesis promoter containing β-cryptoxanthin as the active ingredient” (Kemin Health, L.C., priority 2002, dated 2012)
Marks after values point to notes of the source that are not given here.

Experiments:
[1] = test system: rats, femoral metaphysis tissue; test: Oral administration to rats: bone calcium level in metaphysis tissue; assay type: in vivo, Wistar male rats; details: for Bone calcium level: metaphysis tissue
Protocol: (§1) Bone calcium level in the bone tissue was determined. After the culture in the incubator, the tissue pieces were washed with 0.25 M sucrose solution and dried and then the bone was weighed. Then concentrated nitric acid was added to the tissue pieces. After the incineration at 120° C. for 12 hours, the bone calcium level was determined with an atomic absorption photometer (“Perkin-Elmer 303” of Perkin-Elmer Co.).
(§2) A solution of β-cryptoxanthin in corn oil having one of three kinds of concentration (10, 25 and 50 μg/ml corn oil) was orally administered to rats (Wistar male rats; 4 to 5 weeks old) in an amount/100 g body weight with a probe once a day for 7 days. The rats were sacrificed 24 hours after the final administration. The femurs were excised. The muscles, etc. were taken out and each femur was divided into diaphysis and metaphysis to determine the bone components.
(§3) Tests were conducted to examine whether the bone components are increased by the oral administration of β-cryptoxanthin to rats or not. β-cryptoxanthin was administered for 7 days (10, 25 or 50 μg/100 g body weight/day) and then calcium level in the bone tissue, determination of alkaline phosphatase activity (enzyme for the acceleration of the calcification of bones) and the amount of deoxyribonucleic acid (DNA: index of the number of the cells in the bone tissue) were determined by the same methods as those in Example 1. In each test group, the determination was conducted 6 times and the results were represented by the average value and the standard error. The significant difference was determined by Student's t-test. The result was compared with that of the control. When P value was not higher than 0.01 (*) as compared with the control, the results were statistically significant.

[2] = test system: rats, femoral metaphysis tissue; test: Oral administration to rats: bone DNA level in metaphysis tissue; assay type: in vivo, Wistar male rats; details: for Bone DNA level: metaphysis tissue
Protocol: (§4) DNA level was determined as an index of the number of cells in the bone tissue. After the culture in an incubator, the tissue pieces were washed with 0.25 M sucrose solution and then the wet weight of them was determined. They were pulverized in 4 ml of 0.1 N NaOH. After the osmosis at 4° C. for 24 hours, the liquid mixture was centrifuged. The supernatant was taken as the sample and determined by a method of Ceriotti et al. (J. Biol. Chem., 241; 34-77, 1951). Namely, 1 ml of concentrated hydrochloric acid and 1 ml of 0.04% indole solution were added to 2 ml of the sample and then the resultant mixture was heated to 100° C. in boiling water. After quenching followed by the extraction with 4 ml of chloroform, the chloroform layer was taken to determine bone DNA level with a spectrophotometer (490 nm).
as §2, §3

[3] = test system: metaphysis tissue of the femur (cancellous bone); test: Bone calcium level in cultured femoral metaphysis tissue pieces; assay type: cell-based, Wistar male rats; details: for Bone calcium level: metaphysis tissue, mean ± SE
Protocol: (§5) The femurs were extracted from rats (Wistar male rats; 4 to 5 weeks old) (purchased from Japan SLC Co., Ltd. and fed with solid Oriental yeast (MF)) under anesthesia with ether under a germfree condition. The femurs were each washed with 0.25 M sucrose solution, and then divided into the diaphysis (cortical bone) and metaphysis (cancellous bone). The bone tissue pieces were cultured in a culture medium (Dulbecco's modified culture medium containing 5% of glucose; serum-free medium) containing. β-cryptoxanthin, etc. at […] in an incubator filled with 5% CO2-95% air for 48 hours. β-cryptoxanthin used was “β-cryptoxanthin” of Extrasynthase Co., cycloheximide used was “Cycloheximide” of Sigma Co. Ltd., β-carotene was “β-carotene” of Sigma ? , xanthine was “Xanthine” of Sigma Co, Ltd., parathormone was “Parathormone” of Sigma Co. Ltd. and prostaglandin E2 was “Prostaglandin E2” of Sigma Co. Ltd. In the control, only the culture medium was used without β-cryptoxanthin or the like.
as §1
The bone component-increasing effect of β-cryptoxanthin was examined. […] Calcium level in the bone tissue, alkaline phosphatase activity (enzyme for accelerating the bone calcification) and the amount of deoxyribonucleic acid (DNA; index of number of cells in the bone tissue) were determined by the same methods as in Example 1. In each test group, the determination vas conducted 6 to 8 times and the results were represented by the average value and the standard error. The significant difference was determined by Student's t-test. The result was compared with that of the control. When P value was not higher than 0.01 (**) or not higher than 0.05 (*), the results were statistically significant.

[4] = test system: metaphysis tissue of the femur (cancellous bone); test: Bone DNA level in cultured femoral metaphysis tissue pieces; assay type: cell-based, Wistar male rats; details: for Bone DNA level: metaphysis tissue, mean ± SE
Protocol: as §5, §4
The bone component-increasing effect of β-cryptoxanthin was examined. The diaphysis and metaphysis tissue of the femur was cultured in the above-described culture medium containing β-cryptoxanthin ([…]) for 48 hours. Calcium level in the bone tissue, alkaline phosphatase activity (enzyme for accelerating the bone calcification) and the amount of deoxyribonucleic acid (DNA; index of number of cells in the bone tissue) were determined by the same methods as in Example 1. In each test group, the determination vas conducted 6 to 8 times and the results were represented by the average value and the standard error. The significant difference was determined by Student's t-test. The result was compared with that of the control. When P value was not higher than 0.01 (**) or not higher than 0.05 (*), the results were statistically significant.

[5] = test system: rats, femoral diaphysis tissue; test: Oral administration to rats: bone alkaline phosphatase activity in diaphysis tissue; assay type: in vivo, Wistar male rats; details: for Bone alkaline phosphatase activity: diaphysis tissue
Protocol: The expression level of alkaline phosphatase, which is the most important enzyme for the acceleration of the calcification of bones, was examined. The tissue pieces cultured in the incubator were washed in 0.25 M sucrose solution, then pulverized in 3 ml of 65 mM barbital buffer (pH 7-4) and treated with ultrasonic waves. The resultant liquid was centrifuged. The supernatant, as the enzyme solution, was determined by a method of Walter ad Schutt in Method of Enzymatic Analysis, Vol. 1-2, p. 856, Academic Press, New York, 1965). Namely, this method was carried out as follows: p-nitrophenylphosphoric acid was used as the substrate. 0.05 ml of the enzyme solution was added to 2 ml of diethanolamine buffer (pH 9.8). After the incubation at 37° C. for 30 minutes, 10 ml of 0.05 N NaOH was added to the mixture. The absorbance (405 nm) was determined with a spectrophotometer to determine bone alkaline phosphatase activity of a bone remedy or a compound known to be effective for the bones.
as §2, §3

[6] = 10, 25 or 50 μg/100 g body weight/day, 7 days
[7] = oral 10 μg/100 g body weight/day for 7 days
[8] = oral 25 μg/100 g body weight/day for 7 days
[9] = oral 50 μg/100 g body weight/day for 7 days
[10] = Table 2 (protein synthesis inhibitor experiment), 10^−6 M (each agent), n=6
[11] = β-cryptoxanthin 10^−6 M with cycloheximide

CC1=C(/C=C/C(C)=C/C=C/C(C)=C/C=C/C=C(C)/C=C/C=C(C)/C=C/C2=C(C)C[C@@H](O)CC2(C)C)C(C)(C)CCC1 [β-cryptoxanthin]
Effect on calcium level in the metaphysis tissue after oral administration (in words) [1, 6]: significantly increased
Bone calcium level [1, 7]: 201.5 ± 5.60* mg/g dry weight
Bone calcium level [1, 8]: 200.3 ± 3.90* mg/g dry weight
Bone calcium level [1, 9]: 205.9 ± 4.10* mg/g dry weight
Effect on DNA in the bone tissue, metaphysis, after oral administration (in words) [2, 6]: significantly increased
Bone DNA level [2, 7]: 4.10 ± 0.24* mg/g bone wet weight
Bone DNA level [2, 8]: 4.25 ± 0.21* mg/g bone wet weight
Bone DNA level [2, 9]: 4.01 ± 0.18* mg/g bone wet weight
Effect on calcium level in the metaphysis tissue (in words) ([3]; 10^−8 to 10^−5 M, 48 h culture, vs control): significant increase
Bone calcium level [3, 10]: 220.0 ± 3.25* mg/g dry weight
Bone calcium level ([3]; 10^−5 M, 48 h culture): 213.5 ± 5.59** mg/g dry weight
Bone calcium level ([3]; 10^−6 M, 48 h culture): 216.8 ± 2.84** mg/g dry weight
Bone calcium level ([3]; 10^−7 M, 48 h culture): 223.6 ± 9.27** mg/g dry weight
Bone calcium level ([3]; 10^−8 M, 48 h culture): 204.7 ± 6.40** mg/g dry weight
Calcium level in metaphysis tissue increased by β-cryptoxanthin: change in the presence of cycloheximide (in words) [3, 11]: significantly lowered
Effect on DNA level in the metaphysis tissue (in words) ([4]; 10^−7 to 10^−5 M, 48 h culture, vs control): significantly increased
Bone DNA level [4, 10]: 5.401 ± 0.188* mg/g bone wet weight
Bone DNA level ([4]; 10^−5 M, 48 h culture): 5.584 ± 0.530** mg/g bone wet weight
Bone DNA level ([4]; 10^−6 M, 48 h culture): 5.359 ± 0.207** mg/g bone wet weight
Bone DNA level ([4]; 10^−7 M, 48 h culture): 4.170 ± 0.057** mg/g bone wet weight
Bone DNA level ([4]; 10^−8 M, 48 h culture): 3.276 ± 0.207 mg/g bone wet weight
Bone DNA level in metaphysis tissue increased by β-cryptoxanthin: change in the presence of cycloheximide (in words) [4, 11]: significantly lowered
Effect on alkali phosphatase activity in the diaphysis tissue after oral administration (in words) [5, 6]: significantly increased
Bone alkaline phosphatase activity [5, 7]: 2.38 ± 0.019* μmol/min/mg protein
Bone alkaline phosphatase activity [5, 8]: 2.35 ± 0.021* μmol/min/mg protein
Bone alkaline phosphatase activity [5, 9]: 1.85 ± 0.025* μmol/min/mg protein
